Laboratory results: patent US8053442B2, “Organic compounds” (Novartis AG, priority 2008, dated 2011)

How the values were obtained:
[1] = system: Plasmodium berghei, GFP ANKA strain; assay: In vivo assay, P. berghei mouse model; conditions: read-out: ED50 in P. berghei mouse model
Procedure: The Plasmodium berghei, GFP ANKA strain described in B. Franke-Fayard et al., Mol. Biochem. Parasitol., 137(1), 23-33, 2004 is used. This strain is maintained in female NMRI mice (20-22 g). The mice are kept in Standard Macrolon cages type II under standard conditions at 22° C. and 60-70% relative humidity, on a diet of pellets (PAB45—NAFAG 9009, Provimi Kliba AG, CH-4303 Kaiseraugst, Switzerland) and water ad libitu. Chloroquine (Sigma C6628) and artemisinin (Sigma 36, 159-3) are used as the standard drugs.
Stock compound solutions are prepared in 100% DMSO (suspended) or a solution consisting of 70% Tween-80 (d=1.08 g/mL) and 30% ethanol (d=0.81 g/mL), followed by a 10-fold dilution in H2O. […]
On days 1, 2 and 3 (24, 48 and 72 hours post-infection), the experimental groups are treated with a single daily dose per oral dosing (p.o). […] The dosage is determined by a preliminary toxicity test. […]
On day 4, 24 hours after the last drug treatment, 1 μL tail blood is taken and dissolved in 1 mL PBS buffer. Parasitaemia is determined with a FACScan (Becton Dickinson) by counting 100,000 red blood cells. The difference between the mean value of the control group and those of the experimental groups is calculated and expressed as a percentage relative to the control group (=activity). […] The survival of the animals is monitored for up to 30 days. […]

[2] = system: Plasmodium falciparum, NF54 (sensitive to all known drugs); assay: In vitro assay, 3H-hypoxanthine incorporation, Plasmodium falciparum NF54; assay type: cell-based; conditions: NF54 (CQ sensitive P. falciparum strain)
Procedure: The compounds of the invention and standard compounds are tested in vitro against two standard parasite strains: Plasmodium falciparum, NF54 (sensitive to all known drugs) and Plasmodium falciparum, K1 (chloroquine and pyrimethamine resistant). Chloroquine diphosphate (Sigma C6628), artemisinin (Sigma 36159-3), artesunate (Mepha), atovaquone (GSK) and proguanil (Roche) are used as the standard drugs. The testing is carried out in 96-well plates (Costar™ 96-well microtiter plates).
Smears of the stock cultures of the two strains are prepared and the parasitemia for each culture is determined. Cultures with parasitemia lower than 2% are not used.
Stock compound solutions are prepared in DMSO at 10 mg/mL. If insoluble in DMSO, other solvents may be used according to the recommendations of the supplier. […]
The plates are harvested with a Betaplate™ cell harvester (Wallac, Zurich, Switzerland), which transfers the red blood cells onto a glass fiber filter and washes the filters with distilled water. The dried filters are inserted into a plastic foil with 10 mL of scintillation fluid and counted in a Betaplate™ liquid scintillation counter (Wallac, Zurich, Switzerland). The results are recorded as counts per minute (cpm) per well at each drug concentration.
Data is transferred into a graphic programme (e.g. EXCEL) and expressed as percentage of the untreated controls. […]

C[C@H]1Cc2c([nH]c3ccc(Cl)cc23)[C@@]2(N1)C(=O)Nc1ccc(Cl)cc12 [Example 62, (1R,3S)-5′,6-Dichloro-3-methyl-2,3,4,9-tetrahydrospiro[β-carboline-1,3′-indol]-2′(1′H)-one]
ED50 [1]: 1.5 mg/kg
IC50 [2]: 3.4 nM

C[C@@H]1Cc2c([nH]c3cc(Cl)c(F)cc23)[C@]2(N1)C(=O)Nc1ccc(Cl)cc12 [Example 50, (1S,3R)-5′,7-Dichloro-6-fluoro-3-methyl-2,3,4,9-tetrahydrospiro[β-carboline-1,3′-indol]-2′(1′H)-one]
ED50 [1]: 1.2 mg/kg
IC50 [2]: 0.9 nM
